Assay results reported in PubChem BioAssay (NCI).
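Following 48 hours of exposure in 96-well plates, responses at five concentrations were used to interpolate endpoints linearly. TGI denotes the concentration required for complete inhibition of growth.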

How the values were obtained:
Assay in all cases: growth of human tumour cells (NCI), 48 h
UO-31 renal = test system: UO-31 renal
786-0 renal = test system: 786-0 renal
SR leukemia = test system: SR leukemia
ACHN renal = test system: ACHN renal
RPMI-8226 leukemia = test system: RPMI-8226 leukemia
MDA-MB-435 = test system: MDA-MB-435
LOX IMVI melanoma = test system: LOX IMVI melanoma
TK-10 renal = test system: TK-10 renal
SNB-75 CNS = test system: SNB-75 CNS
RXF 393 renal = test system: RXF 393 renal
HS 578T breast = test system: HS 578T breast
KM12 colon = test system: KM12 colon
SK-MEL-28 melanoma = test system: SK-MEL-28 melanoma
HOP-62 NSCLC = test system: HOP-62 NSCLC
IGROV1 ovarian = test system: IGROV1 ovarian
SNB-19 CNS = test system: SNB-19 CNS
HCT-116 colon = test system: HCT-116 colon
A549 NSCLC = test system: A549 NSCLC
BT-549 breast = test system: BT-549 breast
EKVX NSCLC = test system: EKVX NSCLC
NCI-H23 lung = test system: NCI-H23 lung
OVCAR-8 ovarian = test system: OVCAR-8 ovarian
CCRF-CEM leukemia = test system: CCRF-CEM leukemia
HCC-2998 colon = test system: HCC-2998 colon
MDA-N = test system: MDA-N
HT29 colon = test system: HT29 colon
COLO 205 colon = test system: COLO 205 colon
UACC-62 melanoma = test system: UACC-62 melanoma
DU-145 prostate = test system: DU-145 prostate
T-47D breast = test system: T-47D breast
HL-60(TB) leukemia = test system: HL-60(TB) leukemia
MOLT-4 leukemia = test system: MOLT-4 leukemia
SW-620 colon = test system: SW-620 colon
HCT-15 colon = test system: HCT-15 colon
UACC-257 melanoma = test system: UACC-257 melanoma
U251 CNS = test system: U251 CNS
NCI-H460 lung = test system: NCI-H460 lung
MDA-MB-231 breast = test system: MDA-MB-231 breast
SF-539 CNS = test system: SF-539 CNS
K-562 leukemia = test system: K-562 leukemia
OVCAR-5 ovarian = test system: OVCAR-5 ovarian
NCI-H226 lung = test system: NCI-H226 lung
PC-3 prostate = test system: PC-3 prostate
SK-MEL-5 melanoma = test system: SK-MEL-5 melanoma
SF-268 CNS = test system: SF-268 CNS
CAKI-1 renal = test system: CAKI-1 renal
SF-295 CNS = test system: SF-295 CNS
MALME-3M melanoma = test system: MALME-3M melanoma
SN12C renal = test system: SN12C renal
OVCAR-3 ovarian = test system: OVCAR-3 ovarian
NCI-H522 lung = test system: NCI-H522 lung
NCI/ADR-RES ovarian = test system: NCI/ADR-RES ovarian
MCF7 breast = test system: MCF7 breast
M14 melanoma = test system: M14 melanoma
SK-OV-3 ovarian = test system: SK-OV-3 ovarian
OVCAR-4 ovarian = test system: OVCAR-4 ovarian
SK-MEL-2 melanoma = test system: SK-MEL-2 melanoma
A498 renal = test system: A498 renal
HOP-92 NSCLC = test system: HOP-92 NSCLC

Measured: TGI

O=C(O)c1ccc(Nc2nc3cc(C(F)(F)F)ccc3nc2-c2ccccc2)cc1
26.2 µM: UACC-62 melanoma
35 µM: 786-0 renal
97.6 µM: SN12C renal
35.1 µM: T-47D breast
34.2 µM: U251 CNS
43.1 µM: HOP-62 NSCLC
95.5 µM: DU-145 prostate
35.9 µM: IGROV1 ovarian
42.7 µM: K-562 leukemia
34.4 µM: HCC-2998 colon
30.6 µM: HCT-15 colon
63.9 µM: SNB-75 CNS
69.6 µM: NCI-H226 lung
30.9 µM: SW-620 colon
40.3 µM: A549 NSCLC
49.4 µM: HS 578T breast
92 µM: EKVX NSCLC
97.7 µM: OVCAR-5 ovarian
81.5 µM: RXF 393 renal
39.3 µM: TK-10 renal
75.7 µM: NCI-H460 lung
28.4 µM: OVCAR-3 ovarian
84.5 µM: HCT-116 colon
28.2 µM: HT29 colon
83.1 µM: RPMI-8226 leukemia
70.2 µM: NCI/ADR-RES ovarian
32.5 µM: LOX IMVI melanoma
36.9 µM: UO-31 renal
35.3 µM: KM12 colon
50.4 µM: CAKI-1 renal
27.9 µM: SF-295 CNS
32.8 µM: NCI-H522 lung
40.6 µM: PC-3 prostate
37.9 µM: COLO 205 colon
56.4 µM: SF-539 CNS
not listed: MCF7 breast | M14 melanoma | SK-OV-3 ovarian | OVCAR-4 ovarian | SK-MEL-2 melanoma | A498 renal | HOP-92 NSCLC
> 100 µM: all other assays above

NNC(=S)Nc1cccc(Cl)c1
92.3 µM: OVCAR-3 ovarian
not listed: SR leukemia | NCI-H226 lung | HOP-92 NSCLC
> 100 µM: all other assays above

COc1ccc2nc3n(c2c1)C(c1c(Cl)cccc1Cl)SC3 (stereo not given)
65.9 µM: OVCAR-4 ovarian
not listed: HS 578T breast | HT29 colon | MDA-MB-231 breast | SF-539 CNS | SF-268 CNS | MALME-3M melanoma | NCI-H522 lung
> 100 µM: all other assays above

COc1ccc2c(c1)C(N)=C(Cc1ccncc1)C2=O
not listed: SR leukemia | HCC-2998 colon | OVCAR-5 ovarian | NCI-H226 lung
> 100 µM: all other assays above
